Experimental data as given in PMC4341984 (Biochemistry, 2014).

Target: T1, UPPSBf (undecaprenyl pyrophosphate synthase) (Bacteroides fragilis, UniProt Q5LI17)
T1 sequence (Q5LI17 1-244): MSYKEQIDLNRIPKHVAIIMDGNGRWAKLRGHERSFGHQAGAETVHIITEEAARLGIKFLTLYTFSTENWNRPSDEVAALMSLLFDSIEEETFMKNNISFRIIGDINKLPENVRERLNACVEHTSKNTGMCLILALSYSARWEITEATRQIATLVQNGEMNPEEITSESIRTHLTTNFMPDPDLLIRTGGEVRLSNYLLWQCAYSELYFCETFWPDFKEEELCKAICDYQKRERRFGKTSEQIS
Assay: fluorescence plate assay, inhibition of […] 2AA-GPP elongation
Assay type: biochemical

Compound: O=P(O)(O)OP(=O)(O)O [diphosphate]
- IC50: 1000 ± 200 µM
